# Laboratory results as given in patent US7173004B2, “Macrocyclic isoquinoline peptide inhibitors of hepatitis C virus” (Bristol-Myers Squibb Company, priority 2003, dated 2007).
# Target: T1, HCV NS3/4A protease complex, BMS strain (genotype 1a) (UniProt P27958, C1454S/C1711G, species not given/STRAIN_BMS)
# T1 construct: b1001: DNA encoding the recombinant HCV NS3/4A protease complex (amino acids 1027 to 1711) ... a three-lysine solubilizing tail was added at the 3′-end of the NS4A coding region; fused on or other part: Three-lysine solubilising tail at the C-terminus of NS4A; A His tag is implied by the pET21b vector and Ni-NTA purification
# Experiment: Recombinant HCV NS3/4A protease complex FRET peptide assay, BMS strain
# Type: biochemical
# Conditions: NS3/4A BMS Strain; activity range classes
# Outline: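 Recombinant NS3/4A (aa 1027–1711) from H77C, J4L6S or BMS strains, with C1454S and C1711G mutations and three-lysine tail, expressed in E. coli and Ni-NTA/gel-filtration purified to >90%. Inhibition of cleavage of a FRET peptide substrate measured.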
row,Compound,IC50
1,CC(C)(C)OC(=O)N[C@H]1CN(S(=O)(=O)c2ccccc2[N+](=O)[O-])CCC/C=C\[C@@H]2C[C@@]2(C(=O)O)NC(=O)[C@@H]2C[C@@H](Oc3nccc4ccccc34)CN2C1=O [Compound 144],500 to 5000 nM
2,"COc1ccc2c(O[C@@H]3C[C@H]4C(=O)N[C@]5(C(=O)O)C[C@H]5/C=C\CCCOC[C@H](NC(=O)OC(C)(C)C)C(=O)N4C3)nccc2c1 [Compound 84, (1S,4R,6S,14S,18R)-7-cis-14-tert-Butoxycarbonylamino-18-(6-methoxyisoquinolin-1-yloxy)-2,15-dioxo-12-oxa-3,16-diazatricyclo[14.3.0.0^4,6]-nonadec-7-ene-4-carboxylic acid]",50 to 500 nM
3,COc1ccc2c(O[C@@H]3C[C@H]4C(=O)N[C@]5(C(=O)O)C[C@H]5/C=C\CCCO[C@H](C)[C@H](NC(=O)OC(C)(C)C)C(=O)N4C3)nccc2c1 [Compound 61],500 to 5000 nM
4,"CC(C)(C)OC(=O)N[C@H]1CCCCC/C=C\[C@@H]2C[C@@]2(C(=O)O)NC(=O)[C@@H]2C[C@@H](Oc3nccc4ccccc34)CN2C1=O [Compound 1, 14-tert-Butoxycarbonylamino-18-(isoquinolin-1-yloxy)-2,15-dioxo-3,16-diaza-tricyclo[14.3.0.0^4,6]nonadec-7-ene-4-carboxylic acid]",50 to 500 nM

# Same assay, conditions: NS3/4A BMS strain; activity range symbols
row,Compound,IC50
1,"CC(C)(C)OC(=O)N[C@H]1CCCCC/C=C\[C@@H]2C[C@@]2(C(=O)NS(=O)(=O)C2CC2)NC(=O)[C@@H]2C[C@@H](Oc3nccc4ccccc34)CN2C1=O [Compound 4, [4-Cyclopropanesulfonylaminocarbonyl-18-(isoquinolin-1-yloxy)-2,15-dioxo-3,16-diaza-tricyclo[14.3.0.0^4,6]nonadec-7-en-14-yl]-carbamic acid tert-butyl ester]",< 50 nM
2,COc1ccc2c(OC3CC4C(=O)NC5(C(=O)NS(=O)(=O)C6CC6)CC5C=CCOCCCC(NC(=O)OC(C)(C)C(F)(F)F)C(=O)N4C3)nccc2c1 (centres unmarked) [Compound 39],< 50 nM
3,COc1ccc2c(OC3CC4C(=O)NC5(C(=O)NS(=O)(=O)C6(C)CC6)CC5C=CCOCCCC(NC(=O)NC5CCCC5)C(=O)N4C3)nccc2c1 (centres unmarked) [Compound 36],< 50 nM
4,CCC1(S(=O)(=O)NC(=O)C23CC2C=CCCCSCC(NC(=O)OC(C)C)C(=O)N2CC(Oc4nccc5cc(OC)ccc45)CC2C(=O)N3)CC1 (centres unmarked) [Compound 44],< 50 nM
5,COc1ccc2c(OC3CC4C(=O)NC5(C(=O)NS(=O)(=O)C6(C)CC6)CC5C=CCOCCCC(NC(=O)OC(C)(C)C)C(=O)N4C3)nccc2c1 (centres unmarked) [Compound 29],< 50 nM
6,"CC(C)(C)OC(=O)N[C@H]1CCCCCCC[C@@H]2C[C@@]2(C(=O)NS(=O)(=O)C2CC2)NC(=O)[C@@H]2C[C@@H](Oc3nccc4ccccc34)CN2C1=O [Compound 10, [4-Cyclopropanesulfonylaminocarbonyl-18-(isoquinolin-1-yloxy)-2,15-dioxo-3,16-diaza-tricyclo[14.3.0.0^4,6]nonadec-14-yl]-carbamic acid tert-butyl ester]",< 50 nM
7,COc1ccc2c(OC3CC4C(=O)NC5(C(=O)NS(=O)(=O)C6CC6)CC5C=CCCCOC(C)C(NC(=O)OC(C)C)C(=O)N4C3)nccc2c1 (centres unmarked) [Compound 64],< 50 nM
8,CC1(OC(=O)NC2CCCCCC=CC3CC3(C(=O)NS(=O)(=O)C3CC3)NC(=O)C3CC(Oc4nccc5ccccc45)CN3C2=O)CCCC1 (centres unmarked) [Compound 50],< 50 nM
9,CCC1(S(=O)(=O)NC(=O)C23CC2C=CCOCCCC(NC(=O)NC2CCCC2)C(=O)N2CC(Oc4nccc5cc(OC)ccc45)CC2C(=O)N3)CC1 (centres unmarked) [Compound 38],< 50 nM
10,"CC1(OC(=O)N[C@H]2CCCCC/C=C\[C@@H]3C[C@@]3(C(=O)NS(=O)(=O)C3CC3)NC(=O)[C@@H]3C[C@@H](Oc4nccc5ccccc45)CN3C2=O)CCC1 [Compound 56, [(Z)-(1S,4R,14S,18R)-4-cyclopropanesulfonylaminocarbonyl-18-(isoquinolin-1-yloxy)-2,15-dioxo-3,16-diaza-tricyclo[14.3.0.0^4,6]nonadec-7-en-14-yl]-carbamic acid 1-methyl-cyclobutyl ester]",< 50 nM
11,"CCCC1(S(=O)(=O)NC(=O)[C@@]23C[C@H]2CCCCCCC[C@H](NC(=O)OC(C)(C)C)C(=O)N2C[C@H](Oc4nccc5ccccc45)C[C@H]2C(=O)N3)CC1 [Compound 7, [18-(Isoquinolin-1-yloxy)-2,15-dioxo-4-(1-propyl-cyclopropanesulfonylaminocarbonyl)-3,16-diaza-tricyclo[14.3.0.0^4,6]nonadec-14-yl]-carbamic acid tert-butyl ester]",< 50 nM
12,COc1ccc2c(OC3CC4C(=O)NC5(C(=O)NS(=O)(=O)C6(C)CC6)CC5C=CCCCSCC(NC(=O)OC(C)C)C(=O)N4C3)nccc2c1 (centres unmarked) [Compound 41],< 50 nM
13,COc1ccc2c(O[C@@H]3C[C@H]4C(=O)N[C@]5(C(=O)NS(=O)(=O)C6CC6)C[C@H]5/C=C\CCCS(=O)(=O)C[C@H](NC(=O)OC(C)(C)C)C(=O)N4C3)nccc2c1 [Compound 19],< 50 nM
14,COc1ccc2c(OC3CC4C(=O)NC5(C(=O)NS(=O)(=O)C6(C)CC6)CC5C=CCCCSCC(NC(=O)OCC(C)(C)C)C(=O)N4C3)nccc2c1 (centres unmarked) [Compound 42],< 50 nM
15,CCC1(S(=O)(=O)NC(=O)C23CC2C=CCCCSCC(NC(=O)OCC(C)(C)C)C(=O)N2CC(Oc4nccc5cc(OC)ccc45)CC2C(=O)N3)CC1 (centres unmarked) [Compound 45],< 50 nM
16,CCC1(S(=O)(=O)NC(=O)C23CC2C=CCOCCCC(NC(=O)OC(C)C)C(=O)N2CC(Oc4nccc5cc(OC)ccc45)CC2C(=O)N3)CC1 (centres unmarked) [Compound 37],< 50 nM
17,"CCCC1(S(=O)(=O)NC(=O)[C@@]23C[C@H]2/C=C\CCCCC[C@H](NC(=O)OC(C)(C)C)C(=O)N2C[C@H](Oc4nccc5ccccc45)C[C@H]2C(=O)N3)CC1 [Compound 6, [18-(Isoquinolin-1-yloxy)-2,15-dioxo-4-(1-propyl-cyclopropanesulfonylaminocarbonyl)-3,16-diaza-tricyclo[14.3.0.0^4,6]nonadec-7-en-14-yl]-carbamic acid tert-butyl ester]",< 50 nM
18,CC1(OC(=O)NC2CCCCCC=CC3CC3(C(=O)NS(=O)(=O)C3CC3)NC(=O)C3CC(Oc4nccc5ccccc45)CN3C2=O)CC1 (centres unmarked) [Compound 59],< 50 nM
19,CC(C)(C)OC(=O)NC1CCCCCC=CC2CC2(C(=O)NS(=O)(=O)C2CC2)NC(=O)C2CC(Oc3nc(Cl)cc4ccccc34)CN2C1=O (centres unmarked) [Compound 57],< 50 nM
20,O=C(NC1CCCCCC=CC2CC2(C(=O)NS(=O)(=O)C2CC2)NC(=O)C2CC(Oc3nccc4ccccc34)CN2C1=O)OC1CCCC1 (centres unmarked) [Compound 20],< 50 nM
21,CC(=O)NC1CCCCCC=CC2CC2(C(=O)NS(=O)(=O)C2CC2)NC(=O)C2CC(Oc3nccc4ccccc34)CN2C1=O (centres unmarked) [Compound 26],< 50 nM
22,CC(C)(C)OC(=O)NC1CSCCCC=CC2CC2(C(=O)NS(=O)(=O)C2CC2)NC(=O)C2CC(Oc3nccc4c(Cl)cccc34)CN2C1=O (centres unmarked) [Compound 78],< 50 nM
23,CC(C)(OC(=O)NC1CCCCCC=CC2CC2(C(=O)NS(=O)(=O)C2CC2)NC(=O)C2CC(Oc3nccc4ccccc34)CN2C1=O)C(F)(F)F (centres unmarked) [Compound 51],< 50 nM
24,CCC1(S(=O)(=O)NC(=O)C23CC2C=CCCCOC(C)C(NC(=O)OCC(C)(C)C)C(=O)N2CC(Oc4nccc5cc(OC)ccc45)CC2C(=O)N3)CC1 (centres unmarked) [Compound 71],< 50 nM
25,CCC1(S(=O)(=O)NC(=O)C23CC2C=CCCCOC(C)C(NC(=O)OC(C)C)C(=O)N2CC(Oc4nccc5cc(OC)ccc45)CC2C(=O)N3)CC1 (centres unmarked) [Compound 72],< 50 nM
